{"source": "patent US12065468B2", "about": "“Heme-binding small peptide” (priority 2021, dated 2024)", "key": {"[1]": {"test_system": "Caenorhabditis elegans", "test": "C. elegans growth", "conditions": "in vivo", "description": "When grown in the lab, the widely-studied model nematode Caenorhabditis elegans normally acquires heme by ingesting bacteria and breaking them down to release heme. […] A new class of heme importer was identified in C. elegans by analyzing heme-responsive proteins and orthologs have been subsequently identified in other parasites such as the kinetoplastid parasite discussed above."}, "[2]": {"test_system": "Sinorhizobium meliloti", "test": "S. meliloti growth curve", "assay_type": "cell-based", "conditions": "increasing amounts of peptide; minimal medium", "experimental": "Growth curve: All growth curve experiments were performed in a Tecan SPARK 10M microplate reader using polystyrene flat bottomed, non-treated, sterile 96 well plates. Overnight cultures grown in LBMC were washed and were subcultured (1:100 dilution) in minimal medium supplemented with respective iron concentrations. The plates were programed to continuously shake at 150 rpm and temperature maintained at 30° C. Optical density was measured at 600 nm every 60 minutes."}, "[3]": {"test": "UV-Vis spectroscopy / colour change on heme addition", "assay_type": "binding", "experimental": "Heme preparation: Hemin solutions were always prepared in 0.1 M NaOH and used within 30 min of preparation. 1:1000 and 1:500 dilution of the stock solution was made and stock concentration was measured by pyridine hemochrome assay as described previously^85 by measuring the absorption at 557 nm using the extinction coefficient of pyridine hemochromogen (34.7 mM^−1 cm^−1).\n(§1) UV-VIS spectroscopy: All absorption spectra were collected in a Tecan Spark™ 10 M microplate reader using black polystyrene 96-well plates. Absorbance from 300 nm to 700 nm was recorded with a 5 nm interval after an initial shaking at 100 rpm for 15 secs. Heme binding to synthesized peptide: Water (pH 7.4) was used in all reactions and was first added to the wells. Peptides solubilized in water were added and then heme solubilized in 0.1 M NaOH was added, mixed thoroughly and measurements were taken immediately. Peptide and heme volume were kept to a maximum of 5 ul in volume. For all the absorption curves (except Extended FIG. 3a) […] was used. The same was also repeated with 0.1 M Tris buffer (pH 7.4) as a base buffer instead of water."}, "[4]": {"test_system": "Candida albicans", "test": "C. albicans biofilm formation", "assay_type": "cell-based"}, "[5]": {"test_system": "Sinorhizobium meliloti", "test": "S. meliloti cell death in 24 hours (plating)", "assay_type": "cell-based"}, "[6]": {"test_system": "Z-ring (FtsZ-GFP)", "test": "Z-ring formation, FtsZ-GFP fluorescent microscopy", "assay_type": "cell-based, Sinorhizobium meliloti", "conditions": "2 μM, 200 mins; listed as L-NCR247", "experimental": "FIG. 15. […] Visualization of Z-ring formation during cell division by FtsZ-GFP labeled cells using fluorescent microscopy. Data indicates percentage of cells displaying fully formed Z-rings when synchronized and treated with upon treatment with 2 μM of L or D-NCR247 for 200 mins. […] Data are presented as average of three biological replicates ±s.d.\nSince NCR247 treatment leads to gene expression change in several genes of the CtrA regulon, we investigated the CtrA regulon and the cell division inhibition role of NCR247. […] In addition, this phenotype is retained in a peptide transporter bacA mutant indicating cell division inhibition happens due to protein-peptide interaction outside the cytoplasm."}, "[7]": {"test_system": "ctrA", "test": "qRT-PCR of ctrA", "assay_type": "cell-based, Sinorhizobium meliloti", "conditions": "2 μM, 30 mins; listed as L-NCR247", "experimental": "FIG. 16. […] The data are expressed as starting quantities (SQ) of respective mRNAs normalized to the control gene SMc00128 and are presented as average of three technical replicates\nRNA isolation and qRT-PCR analysis: Cells were grown in LB until they reached an O.D.600 nm of 0.2. Then cells were spun down and suspended in minimal media with or without appropriate FeSO4 concentrations for 1 hour. NCR247 was then added and 5 ml of appropriate cultures were spun down at given time intervals. Total RNA was extracted using Trizol™ (Thermo Fisher Scientific) method. Qiagen RNeasy™ kit was used to purify the RNA. On-column DNA removal was carried out using DNase I from NEB. 500 ng of each RNA sample was used to make cDNA using the iScript™ cDNA synthesis kit (Biorad). qRT-PCRs were performed as described previously^86. The standard curve method was used for relative quantification. In short, a standard curve was generated for each gene of interest (including SMc00128) by setting up qpCR reactions to amplify increasing amounts of S. meliloti Rm 1021 genomic DNA. […] This curve was then used for extrapolating relative expression level of each gene of interest in a particular sample to obtain the starting quantities (SQ). […] These normalized values are then expressed as an average of triplicates, with standard deviation (s.d.) represented by the error bars. […]"}, "[8]": {"test_system": "S. meliloti", "test": "ICP-MS iron content of cells", "assay_type": "cell-based, Sinorhizobium meliloti", "conditions": "2 μM", "experimental": "ICP-MS: 200 μL of protein sample was mixed with 2 ml of 2% HNO3 and ICP-MS was performed as described previously^84. For bacterial samples, 1 ml of sample was spun down and the pellet was resuspended in 40 μL of 100% HNO3 and heated at 98° C. for 1 hour. The supernatant of the solution was mixed with metal free water to make up to 2 mL and ICP-MS analysis was performed as described previously^84. Same number of cells were spun down for protein analysis through […] and data were normalized to the amount of protein in each sample. For ICP-MS analysis of nodules same procedure was followed, except nodules were first crushed in PBS, portion of sample kept aside for protein quantification and then remaining was treated with HNO3. Agilent ICP-MS instrumentation with MassHunter 4.4 was used to collect data."}, "[9]": {"test_system": "iron uptake genes (hmuP, foxA, fhuP, rhrA, fbpA), rirA", "test": "qRT-PCR of iron-related genes in S. meliloti", "assay_type": "cell-based, Sinorhizobium meliloti", "conditions": "30 mins; for expression of iron uptake genes: 2 μM (NSR247 up to 15 uM)", "experimental": "RNA isolation and qRT-PCR analysis: Cells were grown in LB until they reached an O.D.600 nm of 0.2. Then cells were spun down and suspended in minimal media with or without appropriate FeSO4 concentrations for 1 hour. NCR247 was then added and 5 ml of appropriate cultures were spun down at given time intervals. Total RNA was extracted using Trizol™ (Thermo Fisher Scientific) method. Qiagen RNeasy™ kit was used to purify the RNA. On-column DNA removal was carried out using DNase I from NEB. 500 ng of each RNA sample was used to make cDNA using the iScript™ cDNA synthesis kit (Biorad). qRT-PCRs were performed as described previously^86. The standard curve method was used for relative quantification. In short, a standard curve was generated for each gene of interest (including SMc00128) by setting up qpCR reactions to amplify increasing amounts of S. meliloti Rm 1021 genomic DNA. […] This curve was then used for extrapolating relative expression level of each gene of interest in a particular sample to obtain the starting quantities (SQ). This value is then normalized to the SQ values of SMc00128 obtained for respective sample. […] These normalized values are then expressed as an average of triplicates, with standard deviation (s.d.) represented by the error bars."}, "[10]": {"test_system": "HEK-293", "test": "Cytotoxic activity assay (MTT)", "assay_type": "cell-based, Human", "conditions": "100 μM, 24 h, listed as L-NCR247", "experimental": "Cytotoxic activity assay: Human embryonic kidney (HEK-293-ATCC-CRL-1573) cell lines were cultured in Dulbecco's Modified Eagle Medium (DMEM) supplemented with 10% Fetal Bovine Serum (FBS). When cells reached 10^4-10^5 cells per well, cells were supplemented with fresh DMEM without FBS, and then treated with 100 μM of NCR247 (L and D). After treatment for 24 h, MTT (Abeam, United Kingdom) stock solution was added to each well at a final concentration of 500 μg/mL and incubated in the dark for 4 h at 37° C. The absorbance at 570 nm was measured in the Tecan plate reader."}, "[11]": {"test_system": "Cytochrome c", "test": "UV-Vis test of heme sequestration from Cytochrome c", "assay_type": "binding", "conditions": "excess NCR247", "experimental": "FIG. 13. […] The absorption spectrum of Cytochrome c remains unaltered even after addition of excess NCR247.\nas §1"}}, "note": "“Also recorded” adds a separate entry of the source.", "data": [{"sequence": "RNGCIVDPRCPYQQCRRPLYCRRR [NCR247]", "values": [{"measurement": "growth of C. elegans", "setting": "[1]", "result": "can block the growth; also recorded: blocks growth of the nematode C. elegans, arresting them in the L1 stage"}, {"measurement": "inhibition of growth of S. meliloti (bacteriostatic effect)", "setting": "[2]", "result": "reduction in growth rate; also recorded: inhibits the growth of Sinorhizobium meliloti"}, {"measurement": "heme binding (absorption peaks 366 nm, ~450 nm; colour change)", "setting": "[3]; heme added to peptide, ferric heme", "result": "bound within seconds; also recorded: binds heme"}, {"measurement": "binding of ferrous heme", "setting": "[3]; sodium dithionite-reduced Fe(II) heme", "result": "binds sodium dithionite-reduced Fe(II) ferrous heme"}, {"measurement": "C. albicans biofilm formation", "setting": "[4]", "result": "interferes with the ability of the opportunistic fungal pathogen Candida albicans to form biofilms; also recorded: can inhibit Candida albicans biofilms"}, {"measurement": "Cell death in 24 hours", "setting": "[5]; 6 uM peptide", "result": "10000 fold decrease in fold decrease in cell number"}, {"measurement": "reduction in number of S. meliloti cells (bactericidal effect)", "setting": "[5]; incubated 24 hours, plated in non-selective medium", "result": "causes a reduction in the number of S. meliloti cells"}, {"measurement": "formation of Z-ring", "setting": "[6]", "result": "results in inhibition of assembly of the Z-ring; also recorded: greatly reduced"}, {"measurement": "expression of ctrA", "setting": "[7]", "result": "lowers the expression of CtrA; also recorded: decrease in expression of ctrA"}, {"measurement": "total iron content of cells", "setting": "[8]", "result": "elevated total iron content of the cells"}, {"measurement": "total iron content of cells", "setting": "[8]; listed as L-NCR247", "result": "Increase in Fe content"}, {"measurement": "expression of iron uptake genes", "setting": "[9]", "result": "increase in transcript levels of iron uptake genes"}, {"measurement": "expression of iron uptake genes", "setting": "[9]; listed as L-NCR247", "result": "increase in expression of hmuP"}, {"measurement": "expression of rirA", "setting": "[9]; 2 μM", "result": "rirA transcription was reduced"}, {"measurement": "cytotoxicity", "setting": "[10]", "result": "negligible cytotoxicity; also recorded: negligible hemolysis"}, {"measurement": "sequestration of heme from Cytochrome c", "setting": "[11]", "result": "cannot sequester cytochrome heme; also recorded: inability of NCR247 to sequester heme from Cytochrome c"}]}]}
